Tests used:
Type in all cases: functional
Conditions in all cases: read-out: GI
HOP-92 = assay: Growth inhibition of human HOP-92 cells at 10 uM incubated for 48 hrs by sulforhodamine B assay relative to control
RXF 393 = assay: Growth inhibition of human RXF 393 cells at 10 uM incubated for 48 hrs by sulforhodamine B assay relative to control
KM12 = assay: Growth inhibition of human KM12 cells at 10 uM incubated for 48 hrs by sulforhodamine B assay relative to control
HCC 2998 = assay: Growth inhibition of human HCC 2998 cells at 10 uM incubated for 48 hrs by sulforhodamine B assay relative to control
TK-10 = assay: Growth inhibition of human TK-10 cells at 10 uM incubated for 48 hrs by sulforhodamine B assay relative to control
NCI-H23 = assay: Growth inhibition of human NCI-H23 cells at 10 uM incubated for 48 hrs by sulforhodamine B assay relative to control
CCRF-CEM = assay: Growth inhibition of human CCRF-CEM cells at 10 uM incubated for 48 hrs by sulforhodamine B assay relative to control
NCI-H322M = assay: Growth inhibition of human NCI-H322M cells at 10 uM incubated for 48 hrs by sulforhodamine B assay relative to control
786-0 = assay: Growth inhibition of human 786-0 cells at 10 uM incubated for 48 hrs by sulforhodamine B assay relative to control
SNB-75 = assay: Growth inhibition of human SNB-75 cells at 10 uM incubated for 48 hrs by sulforhodamine B assay relative to control
SK-MEL-28 = assay: Growth inhibition of human SK-MEL-28 cells at 10 uM incubated for 48 hrs by sulforhodamine B assay relative to control
UACC-257 = assay: Growth inhibition of human UACC-257 cells at 10 uM incubated for 48 hrs by sulforhodamine B assay relative to control
NCI/ADR-RES = assay: Growth inhibition of human NCI/ADR-RES cells at 10 uM incubated for 48 hrs by sulforhodamine B assay relative to control
SF-268 = assay: Growth inhibition of human SF-268 cells at 10 uM incubated for 48 hrs by sulforhodamine B assay relative to control
MDA-MB-435 = assay: Growth inhibition of human MDA-MB-435 cells at 10 uM incubated for 48 hrs by sulforhodamine B assay relative to control
SNB-19 = assay: Growth inhibition of human SNB-19 cells at 10 uM incubated for 48 hrs by sulforhodamine B assay relative to control
IGROV-1 = assay: Growth inhibition of human IGROV-1 cells at 10 uM incubated for 48 hrs by sulforhodamine B assay relative to control
OVCAR-4 = assay: Growth inhibition of human OVCAR-4 cells at 10 uM incubated for 48 hrs by sulforhodamine B assay relative to control
DU-145 = assay: Growth inhibition of human DU-145 cells at 10 uM incubated for 48 hrs by sulforhodamine B assay relative to control
SK-MEL-5 = assay: Growth inhibition of human SK-MEL-5 cells at 10 uM incubated for 48 hrs by sulforhodamine B assay relative to control
NCI-H226 = assay: Growth inhibition of human NCI-H226 cells at 10 uM incubated for 48 hrs by sulforhodamine B assay relative to control
NCI-H522 = assay: Growth inhibition of human NCI-H522 cells at 10 uM incubated for 48 hrs by sulforhodamine B assay relative to control
SW-620 = assay: Growth inhibition of human SW-620 cells at 10 uM incubated for 48 hrs by sulforhodamine B assay relative to control
M14 = assay: Growth inhibition of human M14 cells at 10 uM incubated for 48 hrs by sulforhodamine B assay relative to control
K562 = assay: Growth inhibition of human K562 cells at 10 uM incubated for 48 hrs by sulforhodamine B assay relative to control
HCT-116 = assay: Growth inhibition of human HCT-116 cells at 10 uM incubated for 48 hrs by sulforhodamine B assay relative to control
OVCAR-5 = assay: Growth inhibition of human OVCAR-5 cells at 10 uM incubated for 48 hrs by sulforhodamine B assay relative to control
OVCAR-3 = assay: Growth inhibition of human OVCAR-3 cells at 10 uM incubated for 48 hrs by sulforhodamine B assay relative to control
NCI-H460 = assay: Growth inhibition of human NCI-H460 cells at 10 uM incubated for 48 hrs by sulforhodamine B assay relative to control
UACC-62 = assay: Growth inhibition of human UACC-62 cells at 10 uM incubated for 48 hrs by sulforhodamine B assay relative to control
T47D = assay: Growth inhibition of human T47D cells at 10 uM incubated for 48 hrs by sulforhodamine B assay relative to control
RPMI-8226 = assay: Growth inhibition of human RPMI-8226 cells at 10 uM incubated for 48 hrs by sulforhodamine B assay relative to control
HT-29 = assay: Growth inhibition of human HT-29 cells at 10 uM incubated for 48 hrs by sulforhodamine B assay relative to control
MDA-MB-231 = assay: Growth inhibition of human MDA-MB-231 cells at 10 uM incubated for 48 hrs by sulforhodamine B assay relative to control
COLO 205 = assay: Growth inhibition of human COLO 205 cells at 10 uM incubated for 48 hrs by sulforhodamine B assay relative to control
BT-549 = assay: Growth inhibition of human BT-549 cells at 10 uM incubated for 48 hrs by sulforhodamine B assay relative to control
SK-OV-3 = assay: Growth inhibition of human SK-OV-3 cells at 10 uM incubated for 48 hrs by sulforhodamine B assay relative to control
MCF7 = assay: Growth inhibition of human MCF7 cells at 10 uM incubated for 48 hrs by sulforhodamine B assay relative to control
A549 = assay: Growth inhibition of human A549/ATCC cells at 10 uM incubated for 48 hrs by sulforhodamine B assay relative to control
ACHN = assay: Growth inhibition of human ACHN cells at 10 uM incubated for 48 hrs by sulforhodamine B assay relative to control
LOX IMVI = assay: Growth inhibition of human LOX IMVI cells at 10 uM incubated for 48 hrs by sulforhodamine B assay relative to control
HCT-15 = assay: Growth inhibition of human HCT-15 cells at 10 uM incubated for 48 hrs by sulforhodamine B assay relative to control
CAKI-1 = assay: Growth inhibition of human CAKI-1 cells at 10 uM incubated for 48 hrs by sulforhodamine B assay relative to control
Malme-3M = assay: Growth inhibition of human Malme-3M cells at 10 uM incubated for 48 hrs by sulforhodamine B assay relative to control

O=C(CNc1nc2ccccc2s1)Nc1ccc(-c2nc3ccccc3s2)cc1
inhibition of growth at 10 µM (HOP-92): 0.18%
inhibition of growth at 10 µM (RXF 393): -12.5%
inhibition of growth at 10 µM (KM12): 0.84%
inhibition of growth at 10 µM (HCC 2998): 7.87%
inhibition of growth at 10 µM (TK-10): 3.3%
inhibition of growth at 10 µM (NCI-H23): 11.2%
inhibition of growth at 10 µM (CCRF-CEM): -10.5%
inhibition of growth at 10 µM (NCI-H322M): 7.75%
inhibition of growth at 10 µM (786-0): -1.86%
inhibition of growth at 10 µM (SNB-75): 1.04%
inhibition of growth at 10 µM (SK-MEL-28): -13.3%
inhibition of growth at 10 µM (UACC-257): -1.9%
inhibition of growth at 10 µM (NCI/ADR-RES): -1.94%
inhibition of growth at 10 µM (SF-268): 7.92%
inhibition of growth at 10 µM (MDA-MB-435): -8.66%
inhibition of growth at 10 µM (SNB-19): -0.11%
inhibition of growth at 10 µM (IGROV-1): 33.4%
inhibition of growth at 10 µM (OVCAR-4): -1.76%
inhibition of growth at 10 µM (DU-145): -5.64%
inhibition of growth at 10 µM (SK-MEL-5): -2.93%
inhibition of growth at 10 µM (NCI-H226): 7.62%
inhibition of growth at 10 µM (NCI-H522): 8.76%
inhibition of growth at 10 µM (SW-620): -8.73%
inhibition of growth at 10 µM (M14): -15.4%
inhibition of growth at 10 µM (K562): 4.87%
inhibition of growth at 10 µM (HCT-116): 1.08%
inhibition of growth at 10 µM (OVCAR-5): 1.6%
inhibition of growth at 10 µM (OVCAR-3): 2.04%
inhibition of growth at 10 µM (NCI-H460): 0.21%
inhibition of growth at 10 µM (UACC-62): 5.38%
inhibition of growth at 10 µM (T47D): 26.1%
inhibition of growth at 10 µM (RPMI-8226): -7.46%
inhibition of growth at 10 µM (HT-29): -8.9%
inhibition of growth at 10 µM (MDA-MB-231): 0.75%
inhibition of growth at 10 µM (COLO 205): -11.7%
inhibition of growth at 10 µM (BT-549): -6.3%
inhibition of growth at 10 µM (SK-OV-3): -7.21%
inhibition of growth at 10 µM (MCF7): 75.2%
inhibition of growth at 10 µM (A549): -0.04%
inhibition of growth at 10 µM (ACHN): -6.65%
inhibition of growth at 10 µM (LOX IMVI): 24.2%
inhibition of growth at 10 µM (HCT-15): -4.63%
inhibition of growth at 10 µM (CAKI-1): -0.18%
inhibition of growth at 10 µM (Malme-3M): 1.87%

Cc1ccc(NCC(=O)Nc2ccc(-c3nc4ccccc4s3)cc2)cc1
inhibition of growth at 10 µM (HOP-92): 15.7%
inhibition of growth at 10 µM (RXF 393): 10.7%
inhibition of growth at 10 µM (KM12): 0.91%
inhibition of growth at 10 µM (HCC 2998): 17%
inhibition of growth at 10 µM (TK-10): -7.12%
inhibition of growth at 10 µM (NCI-H23): 16.4%
inhibition of growth at 10 µM (CCRF-CEM): 60.1%
inhibition of growth at 10 µM (NCI-H322M): 4.73%
inhibition of growth at 10 µM (786-0): 10.2%
inhibition of growth at 10 µM (SNB-75): -0.38%
inhibition of growth at 10 µM (SK-MEL-28): -17.2%
inhibition of growth at 10 µM (UACC-257): 5.3%
inhibition of growth at 10 µM (NCI/ADR-RES): 2.16%
inhibition of growth at 10 µM (SF-268): 12.6%
inhibition of growth at 10 µM (MDA-MB-435): -1.83%
inhibition of growth at 10 µM (SNB-19): 10.5%
inhibition of growth at 10 µM (IGROV-1): 7.63%
inhibition of growth at 10 µM (OVCAR-4): 14.5%
inhibition of growth at 10 µM (DU-145): 5.52%
inhibition of growth at 10 µM (SK-MEL-5): 11.3%
inhibition of growth at 10 µM (NCI-H226): 5.78%
inhibition of growth at 10 µM (NCI-H522): 12.3%
inhibition of growth at 10 µM (SW-620): -7.34%
inhibition of growth at 10 µM (M14): 3.66%
inhibition of growth at 10 µM (K562): -0.15%
inhibition of growth at 10 µM (HCT-116): 5.72%
inhibition of growth at 10 µM (OVCAR-5): -6.57%
inhibition of growth at 10 µM (OVCAR-3): 0.68%
inhibition of growth at 10 µM (NCI-H460): -2.34%
inhibition of growth at 10 µM (UACC-62): 14.5%
inhibition of growth at 10 µM (T47D): 33.8%
inhibition of growth at 10 µM (RPMI-8226): 18.6%
inhibition of growth at 10 µM (HT-29): -6.9%
inhibition of growth at 10 µM (MDA-MB-231): 22.3%
inhibition of growth at 10 µM (COLO 205): -3.48%
inhibition of growth at 10 µM (BT-549): 35.4%
inhibition of growth at 10 µM (SK-OV-3): -13.1%
inhibition of growth at 10 µM (MCF7): 40.9%
inhibition of growth at 10 µM (A549): 13.8%
inhibition of growth at 10 µM (ACHN): -6.82%
inhibition of growth at 10 µM (LOX IMVI): 22.8%
inhibition of growth at 10 µM (HCT-15): 13.4%
inhibition of growth at 10 µM (CAKI-1): 0.82%
inhibition of growth at 10 µM (Malme-3M): -21.5%
